From patent US20250295609A1, “COMPOUND HAVING ANTI-ANDROGEN RECEPTOR ACTIVITY, AND USE THEREOF” (NANJING MINOVA PHARMACEUTICAL CO., LTD., priority 2022, published 2025)

System: alopecia mouse model
Experiment: Hair growth promotion test in mice with alopecia (testosterone propionate model)
Format: in vivo, C57BL/6 mice
Method: The compounds of the present disclosure were tested for their hair growth-promoting effects on an alopecia mouse model.
C57BL/6 mice (purchased from SPF (Beijing) Biotechnology Co., Ltd., production license No.: SCXK (Beijing) 2019-0010), test compounds (prepared by the method of the present disclosure), rosin (Shanghai YuanYe Bio-Technology Co., Ltd., lot No. Y18M10C83144), liquid paraffin (Shanghai YuanYe Bio-Technology Co., Ltd., lot No.: Z22S11Y125555), chloral hydrate (Sinopharm Chemical Reagent Co., Ltd., lot No.: 20190823, a 2% chloral hydrate solution was prepared by using a 0.9% sodium chloride solution before use), testosterone propionate (Aladdin Reagent (Shanghai) Co., Ltd., lot No.: T101368, a 0.5% testosterone propionate solution was prepared by using an a soybean oil for injection before use), soybean oil for injection (Liaoning Shinsun Pharmaceutical Co., Ltd., lot No.: NMPA Approval No. H21024303), paraformaldehyde (Xilong Scientific Co., Ltd., lot No.: 1705022), a 0.9% sodium chloride solution (Jiangsu Huai'an Shuanghe Pharmaceutical Co., Ltd., lot No.: 210322-3C), an electronic balance (Beijing Sartorius Scientific Instruments Co., Ltd., model: BS224 S; GZX-9140MBE), and a digital display electric heating constant temperature air blast drying oven (Shanghai Boxun Medical Biological Instrument Corp.).
8-week-old male C57BL/6 mice were selected and injected with 2% chloral hydrate (400 mg/kg) for anesthesia. Equal amounts of rosin and paraffin were weighed out, heated, and mixed well. The mixture was applied on the front back of the mice in an area of about 2 cm×2.5 cm. After the mixture was cooled to be hard, the solidified hair was torn off by tweezers gently.
Qualified C57BL/6 mice (3 mice per group) were randomly assigned to a blank group, a model group, a positive control drug group (7.5% clascoterone group), and test groups (including 0.3% compound 8 group and 0.3% compound 7 group). Mice in the blank group were coated with 0.1 mL of normal saline in the depilated area every morning (1 time a day for 17 consecutive days); mice in the model group were coated with 0.1 mL of 0.5% testosterone propionate solution in the depilated area every morning (1 time a day, starting on the first day, for 17 consecutive days), and with 0.5 mL of the control solvent in the depilated area every afternoon (1 time a day, starting on the second day, for 16 consecutive days); mice in the positive control drug group were coated with 0.1 mL of 0.5% testosterone propionate solution in the depilated area every morning (1 time a day, starting on the first day, for 17 consecutive days), and with 0.5 mL of 7.5% clascoterone solution in the depilated area every afternoon (1 time a day, starting on the second day, for 16 consecutive days); and mice in the test groups were coated with 0.1 mL of 0.5% testosterone propionate solution in the depilated area every morning (1 time a day, starting on the first day, for 17 consecutive days), and with 0.5 mL of 0.3% test compound solution in the depilated area every afternoon (1 time a day, starting on the second day, for 16 consecutive days). The formula of the test compound solution was 0.3% test compound, 40% DMSO, 30% ethanol, and the balance of water; the formula of the control solvent was 40% DMSO, 30% ethanol, and the balance of water; the formula of the positive control drug group was 7.5% clascoterone, 40% DMSO, 30% ethanol, and the balance of water. The hair regrowth in the depilated area of the mice in each group was observed and photographed 16 days after the start of topical administration of the test compound solution.
On day 18 of the test, 5 new hairs were pulled out from the back depilated area of each mouse in each group, the lengths of the hairs were measured using a vernier caliper, and the lengths of the hairs of the mice in each group were counted. The skin of the depilated area of the mice in each group was cut out, and hematoxylin-eosin staining (HE staining) was performed. […]

CCC(=O)O[C@]1(C(=O)CO)CC[C@H]2[C@@H]3CCC4=CC(=O)CC[C@]4(C)[C@H]3CC[C@@]21C [clascoterone, reference compound]
hair growth and number of hair follicles compared to the model group (in words) (alopecia mouse model, FIG. 3): significantly grown hairs and the number of hair follicles was significantly increased | Number of hair follicles (X ± SD) (day 18, per field (×100), HE staining, topical once daily for 16 days): 53.533 ± 24.929 | Hair length (X ± SD) (day 18, topical once daily for 16 days, testosterone propionate alopecia mice): 5.649 ± 0.059 mm
